According to a melting point compilation (Tetko et al.; mined from patent text by program, amines drawn as free bases though some values may be those of a salt):

Row | Compound | melting point [°C]
1 | CCCCCCc1cc2c(=O)c(-c3ccc(OC)cc3)coc2cc1O | 188
2 | CCCCCc1ccc(-c2ncc(O)cn2)c(F)c1F | 104 to 105
3 | CN1CCNC(=O)N1c1cc(Cl)cc(Cl)c1 | 150 to 151
4 | CON(c1ccc([N+](=O)[O-])cc1F)S(=O)(=O)c1ccc(Cl)c(C(F)(F)F)c1 | 104 to 106
5 | COc1ccc(COc2cccc3cc(NS(=O)(=O)C(F)(F)F)ccc23)cc1Cl | 129 to 130
6 | CCCCNc1cc(-c2ccccc2)nc2nn(C)cc12 | 160 to 161
7 | C#CCN(C)Cc1ccc([N+](=O)[O-])cc1 | 47 to 49
8 | O=C(NC12CC3CC(CC(C3)C1)C2)OCc1cccs1 | 66 to 68
9 | CCc1ccc(C(=O)O)c(N)c1 | 117 to 120
10 | CC(=NNC(=O)C1CC1)c1ccc(Cl)nc1 | 218
11 | CCN(CC)CCNc1ncc2cc(-c3c(Cl)cccc3Cl)c(NC(=O)NC(C)(C)C)nc2n1 | 94.5 to 96.5
12 | COc1cc2nc(-c3ccc(Cl)cc3)nc(O)c2cc1OC | 329
13 | CCCCn1cc(CCN(C)C)c2c(OCc3ccccc3)cc(F)cc21 | 86 to 89
14 | N#CC(C(=O)C(F)(F)C(F)(F)F)c1ccccc1 (centres undefined) | 94 to 95
15 | O=C1c2cc(O)ccc2OCN1CCO[N+](=O)[O-] | 80
16 | CS(=O)c1ccc(-c2cnn3c(O)ncnc23)cc1 (centres undefined) | 285 to 286
17 | COC(=O)CSCc1sccc1S(=O)(=O)N(C)c1cccc2cc(-c3nccs3)[nH]c12 | 126
18 | CCOC(=O)c1cc2cc(C(F)(F)F)ccc2[nH]1 | 134 to 137
19 | COc1c(C)c2c(c(OS(=O)(=O)c3ccc(C)cc3)c1CC1=C(C)C(O)CC1)C(=O)OC2 (centres undefined) | 108 to 112
20 | NC(=O)Cc1ccccc1Cn1ccc(OCc2ccc(F)cc2F)c(Br)c1=O | 178 to 183
21 | CCOC(=O)C(=O)CC(=O)C(=CN(C)C)c1ccccc1 | 110
22 | COC(=O)N(C)CCc1ccc([N+](=O)[O-])c(CS(=O)(=O)c2ccccc2)c1 | 42
23 | CN(C)C1(c2ccccc2)CCC2(OCCc3c2[nH]c2ccccc32)C(CC#N)C1 (centres undefined) | 260 to 267
24 | O=C(c1cnc2c(n1)CCCC2)C1CCCCC1 | 63.5 to 64.5
25 | Cc1ccc(S(=O)(=O)Oc2ccccc2NC(=O)c2cccc3[nH]ccc23)cc1 | 135

Row | Compound | melting point [°C]
26 | O=C(Nc1cc(C(F)(F)F)ccc1N1CCCCCC1)c1ccncc1 | 138 to 139
27 | O=S(=O)(c1ccc(Cl)cc1)C(c1cc(F)ccc1F)c1ccncc1Cl (centres undefined) | 160 to 161
28 | Cc1cnc(Cl)c2c3cc(O)ccc3n(C)c12 | > 260
29 | O=C(OCC1CCCC1)c1ncn2c1[C@@H]1CCCN1C(=O)c1c(Cl)cccc1-2 | 112 to 114
30 | CN(Cc1cc(C(F)(F)F)cc(C(F)(F)F)c1)C(=O)c1c(-c2ccc(F)cc2)c2ccsc2c(=O)n1C | 196 to 197
31 | N#Cc1cc(NC(=O)c2cc3ccccc3s2)ccc1N1CCC(O)CC1 | 224 to 225
32 | CCOC(=O)/C=C(/c1ccccc1)c1ccc([N+](=O)[O-])c(COS(C)(=O)=O)c1 | 87.8
33 | CC1CN(C(=O)c2ccc(Cl)cc2Cl)c2ccc(Cl)cc2C1=O (centres undefined) | 157 to 159
34 | O=C(O)c1cc2c(cc1C(=O)O)C(c1ccccc1)(C(F)(F)F)c1cc(C(=O)O)c(C(=O)O)cc1O2 | 276
35 | CCOC(=O)c1cnc2c(OC)cccc2c1Nc1cscc1C | 162 to 164
36 | CCOP(=O)(Cc1ccc(C(=O)O)cc1)OCC | 117 to 120
37 | CC(=O)N1CCc2cc(C(=O)CCCCCl)ccc21 | 90 to 91
38 | CCCCNC(=O)Oc1cccc(NC(=O)CC(C)(OCC)OCC)c1 | 130
39 | CNC(=O)[C@H]1S[C@@H](n2cnc3c(NC)nc(Cl)nc32)[C@H](O)[C@@H]1O | 130 to 141
40 | Cc1oc(-c2ccco2)nc1CCc1ccc(CCCCC2OC(=O)NC2=O)cc1 (centres undefined) | 140 to 141
41 | N#CC(C(=O)Nc1ccc(Cl)cc1)C(=O)c1ccc[nH]1 (centres undefined) | 219 to 221
42 | CCN(C)C(=O)Nc1ccc2c(c1Cl)C(c1ccccc1F)=NCC(=O)N2C | 184 to 186
43 | O=C(O)c1ccc2c(c1)Sc1ccccc1NC2=O | 362 to 364
44 | Cc1nc(N2CCC(Cc3ccc(OC(F)F)cc3)C2=O)sc1C(=O)NCc1ccccc1 (centres undefined) | 132 to 133
45 | NS(=O)(=O)c1ccc(N2CC(=O)N(c3ccccc3)C2=O)cc1 | 255 to 257
46 | CCC1(CC)CN(c2ncc(C(=O)N(C)c3cccc(C(F)(F)F)c3)c(N)n2)C(=O)N1 | 185 to 187
47 | c1ccc(-c2noc(-c3cc4c(cn3)[nH]c3ccccc34)n2)cc1 | 279 to 283
48 | COC1OC(=O)C(OC)(OC)C1Cl (centres undefined) | 90
49 | Cc1cc(C)c2nn3c(SCc4ccccc4)nc(N)nc3c2n1 | 263 to 265
